Data published in publication PMC9229564 (Viruses, 2022).
Entries after “also recorded” stand apart in the source; their conditions may differ. Like-named read-outs stand apart in the source and are kept apart here.

Legend:
[1] = system: CHIKV; details: previous work; cited from earlier work
[2] = molecular target: human SK1 (Homo sapiens, UniProt Q9NYA1); experiment: SK1 inhibition (Ki); type: biochemical
[3] = system: CHIKV; experiment: CHIKV infection of HeLa cells, immunofluorescence high-content imaging; type: cell-based, Chikungunya virus (clone 181/25); details: for inhibition of CHIKV infection (nsP3 expression), screen: 20 µM, cutoff at least 50% inhibition with at least 75% cell viability; for EC50: HeLa cells, CHIKV infection, increasing concentration of inhibitor
[4] = molecular target: T1, human SK2 (Homo sapiens, UniProt Q9NRA0); experiment: SK2 inhibition (Ki); type: biochemical
T1 sequence (Q9NRA0 1-654): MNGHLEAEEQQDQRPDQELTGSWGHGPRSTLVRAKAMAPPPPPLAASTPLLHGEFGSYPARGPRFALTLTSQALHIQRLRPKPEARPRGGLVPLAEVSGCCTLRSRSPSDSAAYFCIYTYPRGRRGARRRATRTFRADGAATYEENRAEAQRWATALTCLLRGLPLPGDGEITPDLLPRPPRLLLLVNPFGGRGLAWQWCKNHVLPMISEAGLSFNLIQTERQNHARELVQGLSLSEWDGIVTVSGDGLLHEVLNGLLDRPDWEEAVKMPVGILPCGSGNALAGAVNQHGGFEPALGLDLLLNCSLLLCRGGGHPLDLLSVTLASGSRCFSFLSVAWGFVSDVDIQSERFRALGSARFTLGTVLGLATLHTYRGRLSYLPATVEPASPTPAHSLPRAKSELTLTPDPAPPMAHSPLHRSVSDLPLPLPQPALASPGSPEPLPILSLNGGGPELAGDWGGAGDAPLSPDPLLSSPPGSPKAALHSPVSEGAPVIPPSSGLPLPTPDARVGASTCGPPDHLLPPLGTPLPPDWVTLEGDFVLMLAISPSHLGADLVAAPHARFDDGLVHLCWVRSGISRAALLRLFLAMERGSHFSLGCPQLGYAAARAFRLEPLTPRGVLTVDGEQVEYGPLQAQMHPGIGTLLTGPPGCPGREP

[5] = system: SK1 and SK2; parameters: method as in earlier work; details: yeast assay; more potent at SK1 than SK2; cited from earlier work
[6] = system: HeLa cells; experiment: virus-free cell viability assay; type: cell-based
[7] = system: CHIKV; experiment: plaque assay of infectious virus release (supernatants on Vero E6 cells); type: cell-based, Chikungunya virus (clone 181/25); details: 25 µM, supernatant 24 h post-infection, plaques on Vero E6 over 72 h
[8] = system: CHIKV; experiment: qRT-PCR of viral nsP1 expression in CHIKV-infected HeLa cells; type: cell-based, Chikungunya virus (clone 181/25); details: 20 µM, 1 h pre-treatment, MOI 1, 24 h
[9] = 1 h pre-treatment, HeLa, MOI = 1, 24 h

Sequence of human SK1 (Q9NYA1 whole entry): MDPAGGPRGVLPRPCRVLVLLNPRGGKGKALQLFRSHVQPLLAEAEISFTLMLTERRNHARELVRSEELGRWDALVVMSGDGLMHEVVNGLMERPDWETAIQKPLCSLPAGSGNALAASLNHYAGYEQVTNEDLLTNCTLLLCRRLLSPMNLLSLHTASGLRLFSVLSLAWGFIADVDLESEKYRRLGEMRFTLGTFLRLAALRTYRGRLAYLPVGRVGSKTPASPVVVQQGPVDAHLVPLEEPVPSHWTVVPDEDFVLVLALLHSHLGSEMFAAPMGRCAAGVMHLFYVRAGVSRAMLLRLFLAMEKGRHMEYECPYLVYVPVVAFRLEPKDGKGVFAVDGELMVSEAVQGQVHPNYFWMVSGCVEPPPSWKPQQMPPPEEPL

O=C(NCc1ccncc1)C12CC3CC(C1)CC(c1ccc(Cl)cc1)(C3)C2 [ABC294640]
timing of effective inhibition of CHIKV infection [1]: most effective at inhibiting CHIKV infection

N=C(N)N1CCC[C@H]1Cc1nc(-c2ccc(Oc3nc(Br)cs3)cc2)no1 [SLC4091425]
Ki ([2]; read-out: SK1 Ki): > 3000 nM
inhibition of CHIKV infection (nsP3 expression), screen [3, 9]: significantly inhibited CHIKV infection
EC50 ([3]; Chikungunya virus, HeLa): 3350 nM
Ki ([4]; read-out: SK2 Ki): > 3000 nM

CCCCCOc1ccc2cc(-c3noc([C@@H]4[C@@H](O)CCN4C(=N)N)n3)ccc2c1 [SLC5111312]
Ki [2]: 360 ± 90 nM
potency at SK1 relative to SK2 [5]: 2 fold
inhibition of CHIKV infection (nsP3 expression), screen [3, 9]: significantly inhibited CHIKV infection
EC50 ([3]; Chikungunya virus, HeLa): 11800 nM
Ki [4]: 330 ± 70 nM

CCCCCCCCCCCCc1ccc(CN(C)C2CCCC2O)cc1 (stereo not drawn) [SLL3041783]
Ki ([2]; read-out: SK1 Ki): 2400 ± 610 nM
inhibition of CHIKV infection (nsP3 expression), screen [3, 9]: significantly inhibited CHIKV infection
EC50 ([3]; Chikungunya virus, HeLa): 3330 nM
Ki ([4]; read-out: SK2 Ki): > 3000 nM

CCCCCCCCCCCCc1ccc(CN2CCCC2CO)cc1 (stereo not drawn) [SLL3071511]
non-toxic concentration [6]: up to 50 µM
inhibition of CHIKV infection (nsP3 expression), screen [3, 9]: significantly inhibited CHIKV infection
viral glycoprotein (E2) expression ([3]; 1 h pre-treatment, HeLa, MOI = 1, 24 h, Supplementary Figure S3): decreased
EC50 ([3]; Chikungunya virus, HeLa): 2900 nM
EC50 [3]: 2910 nM
anti-CHIKV activity at higher MOI ([3]; HeLa, MOI = 10, 24 h): retained significant anti-CHIKV activity
timing of effective inhibition of CHIKV infection ([3]; treatment 1 h before, along with or 1 h after infection, MOI 1): highest inhibitory effect occurring when the compound is used prior to infection; also recorded: maximal inhibition occurring when SLL3071511 is added prior to infection
plaque counts (infectious virus release) [7]: significantly diminished
viral nsP1 expression [8]: significantly diminished
Ki ([4]; read-out: SK2 Ki): 660 ± 110 nM
